Measurements as given in US10323018B2 (Millennium Pharmaceuticals, Inc., priority 2015, dated 2019).

Legend:
PC3 cells = experiment: PC3 growth inhibition (Cell-titer glo, 72 hours); type: cell-based; conditions: Homo sapiens, PC-3, 72 h, read-out: Percent Viability, PC3 cells, compound concentration 1.667 μM, 72 hours
Procedure: The invention also provides compounds that inhibit cell growth. The ability of a compound of the invention to inhibit the growth of cells can be measured using a variety of methods known in the art. For example, the ability of a compound of the invention to inhibit the growth of PC3 cells can be measured. PC3 cells can be plated and incubated overnight under CO2. For each measurement, a compound of the invention (or vehicle e.g., DMSO) can be diluted with AIM serum free medium and added to the cell plate. The cell plate can then be incubated for 72 h under CO2. Cell-titer glo solution can be added and the plates can be incubated protected from light and the amount of luminescences can be measured. Concentration response curves can be generated by calculating the luminescence increase in test compound treated samples relative to DMSO-treated controls. Percentage remaining viability values at a single concentration can be measured. Growth inhibition (GI50) or cell viability (LD50) values can be determined from thoses curves. In one embodiment, compounds of the invention have a percent viability in PC3 line @ 1.667 uM of <1%. In one embodiment, compounds of the invention have a percent viability in PC3 line @ 1.667 uM of <2%. In one embodiment, compounds of the invention have a percent viability in PC3 line @ 1.667 uM of <3%. In one embodiment, compounds of the invention have a percent viability in PC3 line @ 1.667 uM of <4%. In one embodiment, compounds of the invention have a percent viability in PC3 line @ 1.667 uM of <5%. In one embodiment, compounds of the invention have a percent viability in PC3 line @ 1.667 uM of <10%. In one embodiment, compounds of the invention have a percent viability in PC3 line @ 1.667 uM of <50%.
To measure PC3 growth inhibition, PC3 cells that were maintained in RPMI1640 growth medium (Life Technologies; Cat. No. 11875) at 37° C. under 5% CO2 are trypsinized and diluted at a density of 8×10^4 cells/ml, 25 ul per well of cells and plated in 384-well black tissue culture plate. The cells are incubated overnight at 37° C. under 5% CO2. For each measurement, a test compound or vehicle DMSO control is diluted with AIM serum free medium and added to the cell plate. The cell plate is incubated for 72 hours at 37° C. under 5% CO2. 25 μl Cell-titer glo solution (Promega; Cat. No. G8462) is added and the cell plates are incubated for 10 minutes protected from light. The luminescence is measured. Concentration response curves are generated by calculating the luminescence increase in test compound-treated samples relative to DMSO-treated controls. Percentage remaining viability values at a single concentration, growth inhibition (GI50) or cell viability (LD50) values are determined from those curves. One skilled in the art will appreciate that these values are subject to experimental variation.

hNAMPT protein = hNAMPT protein (Homo sapiens (Human), UniProt P43490); experiment: NAMPT enzyme assay (TR-FRET/HTRF with BodiPY ligand); type: binding; conditions: for inhibition at 1 µM: NAMPT inhibition at compound concentration 1 μM; for IC50: NAMPT inhibition, IC50 range class
Excerpt: As discussed above, the invention provides compounds that are useful as inhibitors of the enzyme NAMPT. The NAMPT inhibition of a compound of the invention can be measured using a variety of methods known in the art. For example, the ability of a compound of the invention to inhibit NAMPT enzyme activity can be measured using a homogeneous time resolved fluorescence (HTRF) assay using hNAMPT protein and anti 6His-Tb in buffer treated with a compound of the invention (or control e.g., DMSO) and BodiPY ligand. The TR-FRET signal can be measured using a high throughput microplate reader (e.g., Pherastar). Excitation can be carried out at 320 nm. The percent inhibition value at a single concentration of compound of the invention can be calculated relative to a control treated sample. A concentration response curve can be generated for each compound of the invention and the curve fitted to generate an IC50 value. […] To measure the inhibition of NAMPT activity hNAMPT protein stock and anti 6His-Tb (Cisbio; Cat. No. […]TLB) is diluted to 3× final concentration with assay buffer (50 mM Tris-HCl (pH 7.5), 1 mM DTT, 100 mM NaCl, 10 mM MgCl2, 0.005% Tween 20). To this solution is added a test compound or vehicle control (DMSO) and BodiPY ligand (structure below). The plate is shaken for 1-2 min sealed and incubated for 1 h at rt in the dark. The TR-FRET signal is measured using BMG Pherastar (Lanthascreen protocol on BMG Pherastar). Excitation was carried out at 320 nm, and the ratio of emission of BodiPY (520 nm) to terbium (486 nm) was determined. Concentration response curves are generated by calculating the excitation increase in test compound-treated samples relative to DMSO-treated controls. For the assay method described above, test compound percent inhibition values at a single concentration are calculated relative to control (DMSO) treated samples. Compound concentration response curves are fitted to generate IC50 values from those curves. One skilled in the art will appreciate that these values generated either as percentage inhibition at a single concentration or IC50 values are subject to experimental variation.

hNAMPT protein, sequence (P43490 whole entry): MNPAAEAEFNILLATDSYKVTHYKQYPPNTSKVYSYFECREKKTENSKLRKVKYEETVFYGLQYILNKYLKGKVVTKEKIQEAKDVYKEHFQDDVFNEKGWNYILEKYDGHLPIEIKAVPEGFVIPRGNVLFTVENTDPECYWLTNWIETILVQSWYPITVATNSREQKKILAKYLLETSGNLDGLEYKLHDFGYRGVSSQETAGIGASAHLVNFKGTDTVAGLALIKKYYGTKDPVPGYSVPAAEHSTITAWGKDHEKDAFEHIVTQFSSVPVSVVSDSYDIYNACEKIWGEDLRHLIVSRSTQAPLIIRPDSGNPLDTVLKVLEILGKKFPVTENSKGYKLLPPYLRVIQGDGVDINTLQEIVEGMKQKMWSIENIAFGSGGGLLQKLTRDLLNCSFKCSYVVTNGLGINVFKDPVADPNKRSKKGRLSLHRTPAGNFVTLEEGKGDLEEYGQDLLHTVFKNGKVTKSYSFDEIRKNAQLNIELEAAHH

SMILES	viability at 1.667 µM (PC3 cells) [%]	inhibition at 1 µM (hNAMPT protein; read-out: Percent Inhibition) [%]	IC50 (hNAMPT protein) [nM]	inhibition at 0.33 µM (hNAMPT protein; NAMPT inhibition at compound concentration 0.33 μM, read-out: Percent Inhibition) [%]
CC(C)Oc1nc(-c2ccc(F)cc2)nc2cc(C(=O)NCCCc3ncc[nH]3)ccc12 [Compound I-36, 2-(4-fluorophenyl)-N-[3-(1H-imidazol-2-yl)propyl]-4-isopropoxyquinazoline-7-carboxamide]	2	> 99	< 10	
COCCOc1nc(-c2ccc(F)cc2)nc2cc(C(=O)NCCCc3ncc[nH]3)ccc12 [Compound I-37, 2-(4-fluorophenyl)-N-[3-(1H-imidazol-2-yl)propyl]-4-(2-methoxyethoxy)quinazoline-7-carboxamide]	2	> 99	< 10	
CCOc1nc(-c2ccc(Cl)cc2)nc2cc(C(=O)NCCCc3ncc[nH]3)ccc12 [Compound I-38, 2-(4-chlorophenyl)-4-ethoxy-N-[3-(1H-imidazol-2-yl)propyl]quinazoline-7-carboxamide]	2	> 99	< 10	
CCN(C)c1nc(-c2ccc(F)cc2)nc2cc(C(=O)NCCCc3ncc[nH]3)ccc12 [Compound I-39, 4-[ethyl(methyl)amino]-2-(4-fluorophenyl)-N-[3-(1H-imidazol-2-yl)propyl]quinazoline-7-carboxamide]	2	96	10 to 50	
O=C(NCCCc1ncc[nH]1)c1ccc2c(OCC3CC3)nc(-c3ccc(F)cc3)nc2c1 [Compound I-40, 4-(cyclopropylmethoxy)-2-(4-fluorophenyl)-N-[3-(1H-imidazol-2-yl)propyl]quinazoline-7-carboxamide]	3	> 99	< 10	
CCNc1nc(-c2ccc(F)cc2)nc2cc(C(=O)NCCCc3ncc[nH]3)ccc12 [Compound I-41, 4-(ethylamino)-2-(4-fluorophenyl)-N-[3-(1H-imidazol-2-yl)propyl]quinazoline-7-carboxamide]	2	92	> 100	
CCNc1cc(OCC)c2ccc(C(=O)NCCCc3ncc[nH]3)cc2n1 [Compound I-42, 4-ethoxy-2-(ethylamino)-N-[3-(1H-imidazol-2-yl)propyl]quinoline-7-carboxamide]	11	83	> 100	
CCOc1cc(-c2ccc(F)cc2)nc2cc(C(=O)NCCCn3cccn3)ccc12 [Compound I-43, 4-ethoxy-2-(4-fluorophenyl)-N-[3-(1H-pyrazol-1-yl)propyl]quinoline-7-carboxamide]	77	99	< 10	
CCOc1cc(-c2ccc(F)cc2)nc2cc(C(=O)NCCCc3nccs3)ccc12 [Compound I-44, 4-ethoxy-2-(4-fluorophenyl)-N-[3-(1,3-thiazol-2-yl)propyl]quinoline-7-carboxamide]	58	97	< 10	
CCOc1cc(-c2ccc(F)cc2)nc2cc(C(=O)NCCCc3ccnnc3)ccc12 [Compound I-45, 4-ethoxy-2-(4-fluorophenyl)-N-[3-(pyridazin-4-yl)propyl]quinoline-7-carboxamide]	8	100	< 10	
CCOc1cc(-c2ccc(F)cc2)nc2cc(C(=O)NCCc3ccn[nH]3)ccc12 [Compound I-46, 4-ethoxy-2-(4-fluorophenyl)-N-[2-(1H-pyrazol-5-yl)ethyl]quinoline-7-carboxamide]	3	97	10 to 50	
CCOc1cc(-c2ccc(F)cc2)nc2cc(C(=O)NCCc3ccc(C#N)cc3)ccc12 [Compound I-47, N-[2-(4-cyanophenyl)ethyl]-4-ethoxy-2-(4-fluorophenyl)quinoline-7-carboxamide]	99	47	< 10	
CCOc1cc(-c2ccc(F)cc2)nc2cc(C(=O)NCCc3cn[nH]c3)ccc12 [Compound I-48, 4-ethoxy-2-(4-fluorophenyl)-N-[2-(1H-pyrazol-4-yl)ethyl]quinoline-7-carboxamide]	4	97	10 to 50	
CCOc1cc(SCC)nc2cc(C(=O)NCCCc3ncc[nH]3)ccc12 [Compound I-49, N-(3-(1H-Imidazol-2-yl)propyl)-4-ethoxy-2-(ethylthio)quinoline-7-carboxamide]	5	98	< 10	
CCOc1cc(-c2ccc(F)c(F)c2)nc2cc(C(=O)NCCCc3ncc[nH]3)ccc12 [Compound I-52, 2-(3,4-difluorophenyl)-4-ethoxy-N-[3-(1H-imidazol-2-yl)propyl]quinoline-7-carboxamide]	4	99	< 10	
O=C(NCCCc1ncc[nH]1)c1ccc2c(Cc3ccccc3)nc(-c3ccc(Cl)cc3)nc2c1 [Compound I-53, 4-benzyl-2-(4-chlorophenyl)-N-[3-(1H-imidazol-2-yl)propyl]quinazoline-7-carboxamide]	4	93	10 to 50	
CCOc1cc(-c2ccc(F)cc2)nc2cc(C(=O)NCc3nc4ccccc4[nH]3)ccc12 [Compound I-54, N-(1H-benzimidazol-2-ylmethyl)-4-ethoxy-2-(4-fluorophenyl)quinoline-7-carboxamide]	94		< 10	96
CCOc1cc(-c2ccc(F)cc2)nc2cc(C(=O)NCCn3cncn3)ccc12 [Compound I-55, 4-ethoxy-2-(4-fluorophenyl)-N-[2-(1H-1,2,4-triazol-1-yl)ethyl]quinoline-7-carboxamide]	86	93	50 to 100	
CCOc1cc(-c2ccc(F)c(Cl)c2)nc2cc(C(=O)NCCCc3ncc[nH]3)ccc12 [Compound I-56, 2-(3-chloro-4-fluorophenyl)-4-ethoxy-N-[3-(1H-imidazol-2-yl)propyl]quinoline-7-carboxamide]	1	99	< 10	
O=C(NCCCc1ncc[nH]1)c1ccc2c(-c3ccc(F)cc3)nc(-c3ccc(Cl)cc3)nc2c1 [Compound I-57, 2-(4-Chlorophenyl)-4-(4-fluorophenyl)-N-[3-(1H-imidazol-2-yl)propyl]quinazoline-7-carboxamide]	1	99	< 10	
CCOc1cc(C2CC2)nc2cc(C(=O)NCCCc3ncc[nH]3)ccc12 [Compound I-58, N-(3-(1H-Imidazol-2-yl)propyl)-2-cyclopropyl-4-ethoxyquinoline-7-carboxamide]	1	96	10 to 50	
